Where two headings read alike, the source gives them in different places. Positions of bridges follow the written chain, without caps; N, C: chain ends. Non-standard residues stand in square brackets, D forms with d. Residues, ends and D or L forms follow the SMILES beside them. Bip = N[C@@H](Cc1ccc(-c2ccccc2)cc1)C(=O)O; Phe(3-CN) = N#Cc1cccc(C[C@H](N)C(=O)O)c1; Phe(3-OMe) = COc1cccc(C[C@H](N)C(=O)O)c1; 4Pal = N[C@@H](Cc1ccncc1)C(=O)O; NMeA = CN[C@@H](C)C(=O)O; Orn = NCCC[C@H](N)C(=O)O; Dab = NCC[C@H](N)C(=O)O; Dap = NC[C@H](N)C(=O)O; Sar = CNCC(=O)O
Molecular target: T1, human PD-1 (Jurkat-PD-1 cells) / PE-labeled human PD-L1-Ig (Homo sapiens, UniProt Q15116)
T1 construct: expressed in transfected cells; host or cells: Jurkat cell line over-expressing human PD-1
T1 sequence (Q15116 25-288): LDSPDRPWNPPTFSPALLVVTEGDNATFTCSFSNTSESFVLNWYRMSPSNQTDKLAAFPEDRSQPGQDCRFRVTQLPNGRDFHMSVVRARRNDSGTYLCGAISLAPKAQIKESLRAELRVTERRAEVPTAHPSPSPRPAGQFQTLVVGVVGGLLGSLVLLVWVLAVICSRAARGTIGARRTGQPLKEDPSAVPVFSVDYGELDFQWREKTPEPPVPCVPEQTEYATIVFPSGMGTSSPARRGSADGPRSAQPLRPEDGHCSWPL
Assay: Jurkat-PD-1 Cell Binding High-Content Screening Assay (CBA); Jurkat hPD1-PDL1 assay
Details: PE-labeled PD-L1-Ig 20 nM final, compound incubated 2 hours at 37° C.
Method in brief: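 Read-out is high-content imaging of PE fluorescence on PD-1-over-expressing Jurkat cells. Cells are first exposed to compound for 2 hours at 37° C in serum-containing DMEM, after which PE-labeled PD-L1-Ig is added at 20 nM final.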

[1] = Jurkat cell line over-expressing human PD-1, read-out: Jurkat HPD1-PDL1 IC50

IC50 [1]	SMILES	IC50 (Jurkat HPD1-PDL1 IC50, Jurkat cell line over-expressing human PD-1)
0.05 µM	COc1cccc(C[C@@H]2NC(=O)[C@H](CC(=O)O)NC(=O)[C@H](Cc3cccc(C#N)c3)NC(=O)[C@H](Cc3ccncc3)NC(=O)CSC[C@@H](C(=O)N[C@@H](C)C(N)=O)NC(=O)[C@H](CO)NC(=O)[C@H](C(C)C)NC(=O)[C@H](CC(C)C)NC(=O)[C@H](CC(N)=O)NC(=O)CN(C)C(=O)[C@H](C)N(C)C(=O)[C@H](C(C)C)NC(=O)[C@H](Cc3ccc(-c4ccccc4)cc3)NC(=O)[C@H](CC(C)C)NC2=O)c1 [Example 1392] ({CH2CO}-[4Pal][Phe(3-CN)]D[Phe(3-OMe)]L[Bip]V[NMeA][Sar]NLVSCA-NH2; thioether N-14)	
0.02 µM	COc1cccc(C[C@@H]2NC(=O)[C@H](CC(=O)O)NC(=O)[C@H](Cc3cccc(C#N)c3)NC(=O)[C@H](CN)NC(=O)CSC[C@@H](C(=O)N[C@@H](C)C(N)=O)NC(=O)[C@H](CO)NC(=O)[C@H](C(C)C)NC(=O)[C@H](CC(C)C)NC(=O)[C@H](CC(N)=O)NC(=O)[C@H]3CCCN3C(=O)[C@H](C)N(C)C(=O)[C@H](C(C)C)NC(=O)[C@H](Cc3ccc(-c4ccccc4)cc3)NC(=O)[C@H](CC(C)C)NC2=O)c1 [Example 1393] ({CH2CO}-[Dap][Phe(3-CN)]D[Phe(3-OMe)]L[Bip]V[NMeA][dP]NLVSCA-NH2; thioether N-14)	
0.09 µM	CC(C)C[C@@H]1NC(=O)[C@H](Cc2c[nH]c3ccccc23)NC(=O)[C@H](CC(=O)O)NC(=O)[C@H](Cc2ccc(O)cc2)NC(=O)[C@H](CN)NC(=O)CSC[C@@H](C(=O)N[C@@H](C)C(N)=O)NC(=O)[C@H](CO)NC(=O)[C@H](C(C)C)NC(=O)[C@H](CC(C)C)NC(=O)[C@H](CC(N)=O)NC(=O)[C@H]2CCCN2C(=O)[C@H](C)N(C)C(=O)[C@H](C(C)C)NC(=O)[C@H](Cc2ccc(-c3ccccc3)cc2)NC1=O [Example 1394] ({CH2CO}-[Dap]YDWL[Bip]V[NMeA][dP]NLVSCA-NH2; thioether N-14)	
0.16 µM	CC(C)C[C@@H]1NC(=O)[C@H](Cc2c[nH]c3ccccc23)NC(=O)[C@H](CC(=O)O)NC(=O)[C@H](Cc2ccc(O)cc2)NC(=O)[C@H](Cc2ccccc2)NC(=O)CSC[C@@H](C(=O)NCC(N)=O)NC(=O)[C@H]([C@@H](C)O)NC(=O)[C@H](C(C)C)NC(=O)[C@H](CC(C)C)NC(=O)[C@H](CC(N)=O)NC(=O)[C@H]2CCCN2C(=O)[C@H](C)N(C)C(=O)[C@H](C(C)C)NC(=O)[C@H](Cc2ccc(-c3ccccc3)cc2)NC1=O [Example 1395] ({CH2CO}-FYDWL[Bip]V[NMeA][dP]NLVTCG-NH2; thioether N-14)	
0.07 µM	CC(C)C[C@@H]1NC(=O)[C@H](Cc2c[nH]c3ccccc23)NC(=O)[C@H](CC(=O)O)NC(=O)[C@H](Cc2ccc(O)cc2)NC(=O)[C@H](Cc2ccccc2)NC(=O)CSC[C@@H](C(=O)NCC(N)=O)NC(=O)[C@H]([C@@H](C)O)NC(=O)[C@H](C(C)C)NC(=O)[C@H](CC(C)C)NC(=O)[C@H](CCN)NC(=O)[C@H]2CCCN2C(=O)[C@H](C)N(C)C(=O)[C@H](C(C)C)NC(=O)[C@H](Cc2ccc(-c3ccccc3)cc2)NC1=O [Example 1396] ({CH2CO}-FYDWL[Bip]V[NMeA][dP][Dab]LVTCG-NH2; thioether N-14)	
0.04 µM	CC(C)C[C@@H]1NC(=O)[C@H](Cc2c[nH]c3ccccc23)NC(=O)[C@H](CC(=O)O)NC(=O)[C@H](Cc2ccc(O)cc2)NC(=O)[C@H](Cc2ccccc2)NC(=O)CSC[C@@H](C(=O)N[C@@H](C)C(N)=O)NC(=O)[C@H](CO)NC(=O)[C@H](C(C)C)NC(=O)[C@H](CC(C)C)NC(=O)[C@H](CCN)NC(=O)[C@H]2CCCN2C(=O)[C@H](C)N(C)C(=O)[C@H](C(C)C)NC(=O)[C@H](Cc2ccc(-c3ccccc3)cc2)NC1=O [Example 1397] ({CH2CO}-FYDWL[Bip]V[NMeA][dP][Dab]LVSCA-NH2; thioether N-14)	
0.05 µM	CC(C)C[C@@H]1NC(=O)[C@H](Cc2c[nH]c3ccccc23)NC(=O)[C@H](CC(=O)O)NC(=O)[C@H](Cc2ccc(O)cc2)NC(=O)[C@H](Cc2ccccc2)NC(=O)CSC[C@@H](C(=O)N[C@@H](C)C(N)=O)NC(=O)[C@H]([C@@H](C)O)NC(=O)[C@H](C(C)C)NC(=O)[C@H](CC(C)C)NC(=O)[C@H](CCN)NC(=O)[C@H]2CCCN2C(=O)[C@H](C)N(C)C(=O)[C@H](C(C)C)NC(=O)[C@H](Cc2ccc(-c3ccccc3)cc2)NC1=O [Example 1398] ({CH2CO}-FYDWL[Bip]V[NMeA][dP][Dab]LVTCA-NH2; thioether N-14)	
0.07 µM	CC(C)C[C@@H]1NC(=O)[C@H](Cc2c[nH]c3ccccc23)NC(=O)[C@H](CC(=O)O)NC(=O)[C@H](Cc2ccc(O)cc2)NC(=O)[C@H](Cc2ccccc2)NC(=O)CSC[C@@H](C(=O)NCC(N)=O)NC(=O)[C@H](CO)NC(=O)[C@H](C(C)C)NC(=O)[C@H](CC(C)C)NC(=O)[C@H](CCN)NC(=O)[C@H]2CCCN2C(=O)[C@H](C)N(C)C(=O)[C@H](C(C)C)NC(=O)[C@H](Cc2ccc(-c3ccccc3)cc2)NC1=O [Example 1399] ({CH2CO}-FYDWL[Bip]V[NMeA][dP][Dab]LVSCG-NH2; thioether N-14)	
0.17 µM	CC(C)C[C@@H]1NC(=O)[C@H](Cc2c[nH]c3ccccc23)NC(=O)[C@H](CC(=O)O)NC(=O)[C@H](Cc2ccc(O)cc2)NC(=O)[C@H](CC(N)=O)NC(=O)CSC[C@@H](C(=O)N[C@@H](C)C(N)=O)NC(=O)[C@H](CO)NC(=O)[C@H](C(C)C)NC(=O)[C@H](CC(C)C)NC(=O)[C@H](CCN)NC(=O)[C@H]2CCCN2C(=O)[C@H](CCCN)NC(=O)[C@H](C(C)C)NC(=O)[C@H](Cc2ccc(-c3ccccc3)cc2)NC1=O [Example 1401] ({CH2CO}-NYDWL[Bip]V[Orn][dP][Dab]LVSCA-NH2; thioether N-14)	
0.26 µM	CC(C)C[C@@H]1NC(=O)[C@H](Cc2c[nH]c3ccccc23)NC(=O)[C@H](CC(=O)O)NC(=O)[C@H](Cc2ccc(O)cc2)NC(=O)[C@H](CC(N)=O)NC(=O)CSC[C@@H](C(=O)N[C@@H](C)C(N)=O)NC(=O)[C@H]([C@@H](C)O)NC(=O)[C@H](C(C)C)NC(=O)[C@H](CC(C)C)NC(=O)[C@H](CCN)NC(=O)[C@H]2CCCN2C(=O)[C@H](CCCN)NC(=O)[C@H](C(C)C)NC(=O)[C@H](Cc2ccc(-c3ccccc3)cc2)NC1=O [Example 1402] ({CH2CO}-NYDWL[Bip]V[Orn][dP][Dab]LVTCA-NH2; thioether N-14)	
0.07 µM	CC(C)C[C@@H]1NC(=O)[C@H](Cc2c[nH]c3ccccc23)NC(=O)[C@H](CC(=O)O)NC(=O)[C@H](Cc2ccc(O)cc2)NC(=O)[C@H](CC(N)=O)NC(=O)CSC[C@@H](C(=O)NCC(N)=O)NC(=O)[C@H](CO)NC(=O)[C@H](C(C)C)NC(=O)[C@H](CC(C)C)NC(=O)[C@H](CCN)NC(=O)[C@H]2CCCN2C(=O)[C@H](CCCN)NC(=O)[C@H](C(C)C)NC(=O)[C@H](Cc2ccc(-c3ccccc3)cc2)NC1=O [Example 1403] ({CH2CO}-NYDWL[Bip]V[Orn][dP][Dab]LVSCG-NH2; thioether N-14)	
0.39 µM	CC(C)C[C@@H]1NC(=O)[C@H](Cc2c[nH]c3ccccc23)NC(=O)[C@H](CC(=O)O)NC(=O)[C@H](Cc2ccc(O)cc2)NC(=O)[C@H](Cc2ccccc2)NC(=O)CSC[C@@H](C(=O)NCC(N)=O)NC(=O)[C@H]([C@@H](C)O)NC(=O)[C@H](C(C)C)NC(=O)[C@H](CC(C)C)NC(=O)[C@H](CC(N)=O)NC(=O)[C@H]2CCCN2C(=O)[C@H](CN)NC(=O)[C@H](C(C)C)NC(=O)[C@H](Cc2ccc(-c3ccccc3)cc2)NC1=O [Example 1404] ({CH2CO}-FYDWL[Bip]V[Dap][dP]NLVTCG-NH2; thioether N-14)	
0.66 µM	CC(C)C[C@@H]1NC(=O)[C@H](Cc2c[nH]c3ccccc23)NC(=O)[C@H](CC(=O)O)NC(=O)[C@H](Cc2ccc(O)cc2)NC(=O)[C@H](Cc2ccccc2)NC(=O)CSC[C@@H](C(=O)N[C@@H](C)C(N)=O)NC(=O)[C@H]([C@@H](C)O)NC(=O)[C@H](C(C)C)NC(=O)[C@H](CC(C)C)NC(=O)[C@H](CC(N)=O)NC(=O)[C@H]2CCCN2C(=O)[C@H](CN)NC(=O)[C@H](C(C)C)NC(=O)[C@H](Cc2ccc(-c3ccccc3)cc2)NC1=O [Example 1405] ({CH2CO}-FYDWL[Bip]V[Dap][dP]NLVTCA-NH2; thioether N-14)	
	CC(C)C[C@@H]1NC(=O)[C@H](Cc2c[nH]c3ccccc23)NC(=O)[C@H](CC(=O)O)NC(=O)[C@H](Cc2ccc(O)cc2)NC(=O)[C@H](Cc2ccccc2)NC(=O)CSC[C@@H](C(=O)NCC(N)=O)NC(=O)[C@H](CO)NC(=O)[C@H](C(C)C)NC(=O)[C@H](CC(C)C)NC(=O)[C@H](CC(N)=O)NC(=O)[C@H]2CCCN2C(=O)[C@H](CN)NC(=O)[C@H](C(C)C)NC(=O)[C@H](Cc2ccc(-c3ccccc3)cc2)NC1=O [Example 1406] ({CH2CO}-FYDWL[Bip]V[Dap][dP]NLVSCG-NH2; thioether N-14)	0.35 µM
0.28 µM	CC(C)C[C@@H]1NC(=O)[C@H](Cc2c[nH]c3ccccc23)NC(=O)[C@H](CC(=O)O)NC(=O)[C@H](Cc2ccc(O)cc2)NC(=O)[C@H](Cc2ccccc2)NC(=O)CSC[C@@H](C(=O)NCC(N)=O)NC(=O)[C@H]([C@@H](C)O)NC(=O)[C@H](C(C)C)NC(=O)[C@H](CC(C)C)NC(=O)[C@H](CCN)NC(=O)[C@H]2CCCN2C(=O)[C@H](CN)NC(=O)[C@H](C(C)C)NC(=O)[C@H](Cc2ccc(-c3ccccc3)cc2)NC1=O [Example 1407] ({CH2CO}-FYDWL[Bip]V[Dap][dP][Dab]LVTCG-NH2; thioether N-14)	
0.09 µM	CC(C)C[C@@H]1NC(=O)[C@H](Cc2c[nH]c3ccccc23)NC(=O)[C@H](CC(=O)O)NC(=O)[C@H](Cc2ccc(O)cc2)NC(=O)[C@H](Cc2ccccc2)NC(=O)CSC[C@@H](C(=O)N[C@@H](C)C(N)=O)NC(=O)[C@H](CO)NC(=O)[C@H](C(C)C)NC(=O)[C@H](CC(C)C)NC(=O)[C@H](CCN)NC(=O)[C@H]2CCCN2C(=O)[C@H](CN)NC(=O)[C@H](C(C)C)NC(=O)[C@H](Cc2ccc(-c3ccccc3)cc2)NC1=O [Example 1408] ({CH2CO}-FYDWL[Bip]V[Dap][dP][Dab]LVSCA-NH2; thioether N-14)	

From patent US20240360178A1, “MACROCYCLIC IMMUNOMODULATORS” (Bristol-Myers Squibb Company, priority 2021, published 2024)
